# According to patent publication US20230085307A1, “PYRIDAZINONE COMPOUND AND HERBICIDE” (NISSAN CHEMICAL CORPORATION, priority 2019, published 2023):
# Tests used:
# green foxtail [1] = assay: Test Example 4: herbicidal effect by soil treatment (Table 19, symbol G); type: in vivo, green foxtail (Setaria viridis)
# In short: (§1)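 Scoring uses the grading scale of an earlier test, three weeks post-application. Treatment consists of spraying a diluted emulsion formulation across the surface of sterilized diluvial soil in which seeds are buried near 1.5 cm deep; boxes are kept in a greenhouse between 25° C. and 30° C.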
# redroot pigweed [2] = assay: Test Example 5: herbicidal effect by foliage application, plastic box (Table 20, symbol N); type: in vivo, redroot pigweed (Amaranthus retroflexus); details: foliage application
# In short: (§2)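 Post-emergence foliar test in sterilized diluvial soil. Compound applied as water-diluted emulsion at a predetermined rate to 14-day-old plants; evaluation at three weeks.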
# redroot pigweed [3] = assay: Test Example 4: herbicidal effect by soil treatment (Table 19, symbol N); type: in vivo, redroot pigweed (Amaranthus retroflexus)
# In short: as §1
# barnyard grass [4] = assay: Test Example 5: herbicidal effect by foliage application, plastic box (Table 20, symbol H); type: in vivo, barnyard grass (Echinochloa crus-galli); details: foliage application
# In short: as §2
# southern crabgrass [5] = assay: Test Example 4: herbicidal effect by soil treatment (Table 19, symbol F); type: in vivo, southern crabgrass (Digitaria ciliaris)
# In short: as §1
# Chinese sprangletop = assay: Test Example 3: herbicidal effect by foliage application, Wagner pot (Table 18, symbol D); type: in vivo, chinese sprangletop (Leptochloa chinensis); details: 320 g/ha
# In short: (§3)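 Plants were sown in alluvial soil held under 0.1–0.5 cm standing water and grown 14 days in a greenhouse at 25–30 °C. An emulsifiable formulation, water-diluted to the set dose, was then sprayed onto the foliage, and effects were scored three weeks later using previously defined criteria.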
# Italian ryegrass [6] = assay: Test Example 4: herbicidal effect by soil treatment (Table 19, symbol K); type: in vivo, Italian ryegrass (Lolium multiflorum)
# In short: as §1
# windgrass [7] = assay: Test Example 4: herbicidal effect by soil treatment (Table 19, symbol L); type: in vivo, windgrass (Apera spica-venti)
# In short: as §1
# velvetleaf [8] = assay: Test Example 4: herbicidal effect by soil treatment (Table 19, symbol M); type: in vivo, velvetleaf (Abutilon theophrasti)
# In short: as §1
# chickweed [9] = assay: Test Example 4: herbicidal effect by soil treatment (Table 19, symbol P); type: in vivo, common chickweed (Stellaria media)
# In short: as §1
# southern crabgrass [10] = assay: Test Example 5: herbicidal effect by foliage application, plastic box (Table 20, symbol F); type: in vivo, southern crabgrass (Digitaria ciliaris); details: foliage application
# In short: as §2
# green foxtail [11] = assay: Test Example 5: herbicidal effect by foliage application, plastic box (Table 20, symbol G); type: in vivo, green foxtail (Setaria viridis); details: foliage application
# In short: as §2
# blackgrass [12] = assay: Test Example 5: herbicidal effect by foliage application, plastic box (Table 20, symbol J); type: in vivo, blackgrass (Alopecurus myosuroides); details: foliage application
# In short: as §2
# velvetleaf [13] = assay: Test Example 5: herbicidal effect by foliage application, plastic box (Table 20, symbol M); type: in vivo, velvetleaf (Abutilon theophrasti); details: foliage application
# In short: as §2
# persian speedwell [14] = assay: Test Example 4: herbicidal effect by soil treatment (Table 19, symbol R); type: in vivo, Persian speedwell (Veronica persica)
# In short: as §1
# blackgrass [15] = assay: Test Example 4: herbicidal effect by soil treatment (Table 19, symbol J); type: in vivo, blackgrass (Alopecurus myosuroides)
# In short: as §1
# wild oat [16] = assay: Test Example 4: herbicidal effect by soil treatment (Table 19, symbol I); type: in vivo, wild oat (Avena fatua)
# In short: as §1
# persian speedwell [17] = assay: Test Example 5: herbicidal effect by foliage application, plastic box (Table 20, symbol R); type: in vivo, Persian speedwell (Veronica persica); details: foliage application
# In short: as §2
# lambsquarters [18] = assay: Test Example 5: herbicidal effect by foliage application, plastic box (Table 20, symbol O); type: in vivo, lambsquarters (Chenopodium album); details: foliage application
# In short: as §2
# Italian ryegrass [19] = assay: Test Example 5: herbicidal effect by foliage application, plastic box (Table 20, symbol K); type: in vivo, Italian ryegrass (Lolium multiflorum); details: foliage application
# In short: as §2
# windgrass [20] = assay: Test Example 5: herbicidal effect by foliage application, plastic box (Table 20, symbol L); type: in vivo, windgrass (Apera spica-venti); details: foliage application
# In short: as §2
# wild oat [21] = assay: Test Example 5: herbicidal effect by foliage application, plastic box (Table 20, symbol I); type: in vivo, wild oat (Avena fatua); details: foliage application
# In short: as §2
# chickweed [22] = assay: Test Example 5: herbicidal effect by foliage application, plastic box (Table 20, symbol P); type: in vivo, common chickweed (Stellaria media); details: foliage application
# In short: as §2
# barnyard grass [23] = assay: Test Example 3: herbicidal effect by foliage application, Wagner pot (Table 18, symbol H); type: in vivo, barnyard grass (Echinochloa crus-galli); details: 320 g/ha
# In short: as §3
# rice flat sedge = assay: Test Example 3: herbicidal effect by foliage application, Wagner pot (Table 18, symbol E); type: in vivo, rice flat sedge (Cyperus iria); details: 320 g/ha
# In short: as §3
# lambsquarters [24] = assay: Test Example 4: herbicidal effect by soil treatment (Table 19, symbol O); type: in vivo, lambsquarters (Chenopodium album)
# In short: as §1
# barnyard grass [25] = assay: Test Example 4: herbicidal effect by soil treatment (Table 19, symbol H); type: in vivo, barnyard grass (Echinochloa crus-galli)
# In short: as §1
# [26] = AAH 320 g/ha, three weeks after application
# [27] = 320 g/ha, evaluated three weeks after application
structure (smiles),measurement,setting,value
COc1ccc(-c2sc3ccccc3c2-c2c(O)c(OC)nn(C)c2=O)c(OC)c1 [1-180],"G: green foxtail, herbicidal effect rating",green foxtail [1]; AAH 320 g/ha,0 (Herbicidal rate of 5% or less (almost no effect))
same,"N: redroot pigweed, herbicidal effect",redroot pigweed [2]; [26],3 (Herbicidal rate of 40% or more and less than 70%)
same,"N: redroot pigweed, herbicidal effect rating",redroot pigweed [3]; AAH 320 g/ha,0 (Herbicidal rate of 5% or less (almost no effect))
same,"H: barnyard grass, herbicidal effect",barnyard grass [4]; [26],1 (Herbicidal rate of 5% or more and less than 20%)
same,"F: southern crabgrass, herbicidal effect rating",southern crabgrass [5]; AAH 320 g/ha,0 (Herbicidal rate of 5% or less (almost no effect))
same,"herbicidal effect on D (Chinese sprangletop), rating 0-5",Chinese sprangletop,0 (Herbicidal rate of 5% or less (almost no effect))
same,"K: Italian ryegrass, herbicidal effect rating",Italian ryegrass [6]; AAH 320 g/ha,0 (Herbicidal rate of 5% or less (almost no effect))
same,"L: windgrass, herbicidal effect rating",windgrass [7]; AAH 320 g/ha,0 (Herbicidal rate of 5% or less (almost no effect))
same,"M: velvetleaf, herbicidal effect rating",velvetleaf [8]; AAH 320 g/ha,0 (Herbicidal rate of 5% or less (almost no effect))
same,"P: chickweed, herbicidal effect rating",chickweed [9]; AAH 320 g/ha,4 (Herbicidal rate of 70% or more and less than 90%)
same,"F: southern crabgrass, herbicidal effect",southern crabgrass [10]; [26],3 (Herbicidal rate of 40% or more and less than 70%)
same,"G: green foxtail, herbicidal effect",green foxtail [11]; [26],5 (Herbicidal rate of 90% or more (almost completely withered))
same,"J: blackgrass, herbicidal effect",blackgrass [12]; [26],3 (Herbicidal rate of 40% or more and less than 70%)
same,"M: velvetleaf, herbicidal effect",velvetleaf [13]; [26],0 (Herbicidal rate of 5% or less (almost no effect))
same,"R: persian speedwell, herbicidal effect rating",persian speedwell [14]; AAH 320 g/ha,4 (Herbicidal rate of 70% or more and less than 90%)
same,"J: blackgrass, herbicidal effect rating",blackgrass [15]; AAH 320 g/ha,0 (Herbicidal rate of 5% or less (almost no effect))
same,"I: wild oat, herbicidal effect rating",wild oat [16]; AAH 320 g/ha,2 (Herbicidal rate of 20% or more and less than 40%)
same,"R: persian speedwell, herbicidal effect",persian speedwell [17]; [26],4 (Herbicidal rate of 70% or more and less than 90%)
same,"O: lambsquarters, herbicidal effect",lambsquarters [18]; [26],2 (Herbicidal rate of 20% or more and less than 40%)
same,"K: Italian ryegrass, herbicidal effect",Italian ryegrass [19]; [26],3 (Herbicidal rate of 40% or more and less than 70%)
same,"L: windgrass, herbicidal effect",windgrass [20]; [26],3 (Herbicidal rate of 40% or more and less than 70%)
same,"I: wild oat, herbicidal effect",wild oat [21]; [26],3 (Herbicidal rate of 40% or more and less than 70%)
same,"P: chickweed, herbicidal effect",chickweed [22]; [26],5 (Herbicidal rate of 90% or more (almost completely withered))
same,"herbicidal effect on H (barnyard grass), rating 0-5",barnyard grass [23],1 (Herbicidal rate of 5% or more and less than 20%)
same,"herbicidal effect on E (rice flat sedge), rating 0-5",rice flat sedge,4 (Herbicidal rate of 70% or more and less than 90%)
same,"O: lambsquarters, herbicidal effect rating",lambsquarters [24]; AAH 320 g/ha,0 (Herbicidal rate of 5% or less (almost no effect))
same,"H: barnyard grass, herbicidal effect rating",barnyard grass [25]; AAH 320 g/ha,0 (Herbicidal rate of 5% or less (almost no effect))
C#CCOc1ccc(-c2sc3ccc(F)cc3c2-c2c(OCC#C)c(C)nn(C)c2=O)cc1 [2-054],"herbicidal effect rating, G: green foxtail",green foxtail [1]; 320 g/ha,0 (Herbicidal rate of 5% or less (almost no effect))
same,herbicidal effect on N: redroot pigweed,redroot pigweed [2]; [27],4 (Herbicidal rate of 70% or more and less than 90%)
same,"herbicidal effect rating, N: redroot pigweed",redroot pigweed [3]; 320 g/ha,3 (Herbicidal rate of 40% or more and less than 70%)
same,herbicidal effect on H: barnyard grass,barnyard grass [4]; [27],3 (Herbicidal rate of 40% or more and less than 70%)
same,"herbicidal effect rating, F: southern crabgrass",southern crabgrass [5]; 320 g/ha,0 (Herbicidal rate of 5% or less (almost no effect))
same,"herbicidal effect on D (Chinese sprangletop), rating 0-5",Chinese sprangletop,5 (Herbicidal rate of 90% or more (almost completely withered))
same,"herbicidal effect rating, K: Italian ryegrass",Italian ryegrass [6]; 320 g/ha,0 (Herbicidal rate of 5% or less (almost no effect))
same,"herbicidal effect rating, L: windgrass",windgrass [7]; 320 g/ha,0 (Herbicidal rate of 5% or less (almost no effect))
same,"herbicidal effect rating, M: velvetleaf",velvetleaf [8]; 320 g/ha,0 (Herbicidal rate of 5% or less (almost no effect))
same,"herbicidal effect rating, P: chickweed",chickweed [9]; 320 g/ha,0 (Herbicidal rate of 5% or less (almost no effect))
same,herbicidal effect on F: southern crabgrass,southern crabgrass [10]; [27],0 (Herbicidal rate of 5% or less (almost no effect))
same,herbicidal effect on G: green foxtail,green foxtail [11]; [27],3 (Herbicidal rate of 40% or more and less than 70%)
same,herbicidal effect on J: blackgrass,blackgrass [12]; [27],0 (Herbicidal rate of 5% or less (almost no effect))
same,herbicidal effect on M: velvetleaf,velvetleaf [13]; [27],4 (Herbicidal rate of 70% or more and less than 90%)
same,"herbicidal effect rating, R: persian speedwell",persian speedwell [14]; 320 g/ha,3 (Herbicidal rate of 40% or more and less than 70%)
same,"herbicidal effect rating, J: blackgrass",blackgrass [15]; 320 g/ha,0 (Herbicidal rate of 5% or less (almost no effect))
same,"herbicidal effect rating, I: wild oat",wild oat [16]; 320 g/ha,0 (Herbicidal rate of 5% or less (almost no effect))
same,herbicidal effect on R: persian speedwell,persian speedwell [17]; [27],5 (Herbicidal rate of 90% or more (almost completely withered))
same,herbicidal effect on O: lambsquarters,lambsquarters [18]; [27],3 (Herbicidal rate of 40% or more and less than 70%)
same,herbicidal effect on K: Italian ryegrass,Italian ryegrass [19]; [27],0 (Herbicidal rate of 5% or less (almost no effect))
same,herbicidal effect on L: windgrass,windgrass [20]; [27],0 (Herbicidal rate of 5% or less (almost no effect))
same,herbicidal effect on I: wild oat,wild oat [21]; [27],0 (Herbicidal rate of 5% or less (almost no effect))
same,herbicidal effect on P: chickweed,chickweed [22]; [27],5 (Herbicidal rate of 90% or more (almost completely withered))
same,"herbicidal effect on H (barnyard grass), rating 0-5",barnyard grass [23],4 (Herbicidal rate of 70% or more and less than 90%)
same,"herbicidal effect on E (rice flat sedge), rating 0-5",rice flat sedge,3 (Herbicidal rate of 40% or more and less than 70%)
same,"herbicidal effect rating, O: lambsquarters",lambsquarters [24]; 320 g/ha,0 (Herbicidal rate of 5% or less (almost no effect))
same,"herbicidal effect rating, H: barnyard grass",barnyard grass [25]; 320 g/ha,0 (Herbicidal rate of 5% or less (almost no effect))
